# Experimental data: patent US20170050939A1, “SMALL MOLECULE INHIBITORS OF G PROTEIN COUPLED RECEPTOR 6 KINASE POLYPEPTIDES” (Mayo Foundation for Medical Education and Research, priority 2014, published 2017)
# pIC50: −log10 of the molar value.
# Target: T1, GRK6, recombinant full-length GST-tagged human protein (Homo sapiens, UniProt P43250)
# T1 construct: GRK6, recombinant full-length GST-tagged human protein; GST
# Test: GRK6 IC50 determination (8-point concentration-response)
# Format: biochemical
# Conditions: not given
# Excerpt: Two hundred forty compounds were further characterized by determining IC50 values in a GRK6 assay. This screen has been previously described in WO 2013/063458, which is incorporated by reference in its entirety herein.
# T1 sequence (P43250 whole entry): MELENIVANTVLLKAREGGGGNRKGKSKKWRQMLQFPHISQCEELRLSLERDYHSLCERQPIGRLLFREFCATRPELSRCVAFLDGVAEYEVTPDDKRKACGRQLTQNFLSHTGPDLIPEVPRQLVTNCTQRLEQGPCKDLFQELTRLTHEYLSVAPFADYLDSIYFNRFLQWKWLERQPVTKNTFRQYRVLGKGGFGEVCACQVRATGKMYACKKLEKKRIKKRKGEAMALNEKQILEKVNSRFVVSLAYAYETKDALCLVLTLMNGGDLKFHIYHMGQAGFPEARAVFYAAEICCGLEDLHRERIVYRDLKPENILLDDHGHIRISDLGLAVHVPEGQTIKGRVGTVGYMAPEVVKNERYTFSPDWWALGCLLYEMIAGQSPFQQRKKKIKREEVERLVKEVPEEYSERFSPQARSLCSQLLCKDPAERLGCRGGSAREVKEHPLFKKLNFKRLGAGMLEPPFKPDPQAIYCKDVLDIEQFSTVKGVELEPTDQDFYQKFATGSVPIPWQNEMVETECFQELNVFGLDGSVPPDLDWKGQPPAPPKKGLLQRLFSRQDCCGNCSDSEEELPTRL
row,SMILES,pIC50
1,Cc1cc(-c2cc(-c3ccc4ccccc4c3)cc(-c3nnc(SCC(=O)O)[nH]3)c2)cnc1C [Compound 54],6.22
2,O=C(O)CSc1nnc(-c2cc(-c3cncc(F)c3)cc(-c3ccc4ccccc4c3)c2)[nH]1 [Compound 55],6.20
3,O=C(O)CSc1nnc(-c2cc(-c3ccoc3)cc(-c3ccc4ccccc4c3)c2)[nH]1 [Compound 56],6.16
4,Cc1nn(C)cc1-c1cc(-c2ccc3ccccc3c2)cc(-c2nnc(SCC(=O)O)[nH]2)c1 [Compound 57],6.13
5,O=C(O)CSc1nnc(-c2cc(-c3ccc4ccccc4c3)cc(-c3cnccc3F)c2)[nH]1 [Compound 58],6.12
6,O=C(O)CSc1nnc(-c2cc(NC(=O)c3ccco3)cc(-c3ccc4ccccc4c3)c2)[nH]1 [Compound 59],6.11
7,CS(=O)(=O)c1cccc(-c2cc(-c3nnc(SCC(=O)O)[nH]3)cc([N+](=O)[O-])c2)c1 [Compound 60],6.11
8,CC(C)(O)c1ccc(-c2cc(-c3nnc(SCC(=O)O)[nH]3)cc([N+](=O)[O-])c2)cc1 [Compound 61],6.10
9,CNS(=O)(=O)c1ccc(-c2cc(-c3nnc(SCC(=O)O)[nH]3)cc([N+](=O)[O-])c2)cc1 [Compound 62],6.08
10,Cc1ccc(-c2cc(-c3ccc4ccccc4c3)cc(-c3nnc(SCC(=O)O)[nH]3)c2)o1 [Compound 63],6.08
11,Cc1noc(C)c1-c1cc(-c2ccc3ccccc3c2)cc(-c2nnc(SCC(=O)O)[nH]2)c1 [Compound 65],5.99
12,COc1ccc(-c2cc(-c3ccc4ccccc4c3)cc(-c3nnc(SCC(=O)O)[nH]3)c2)cn1 [Compound 66],5.97
13,O=C(O)CSc1nnc(-c2cc(NC(=O)c3ccoc3)cc(-c3ccc4ccccc4c3)c2)[nH]1 [Compound 67],5.88
14,COc1ncccc1-c1cc(-c2ccc3ccccc3c2)cc(-c2nnc(SCC(=O)O)[nH]2)c1 [Compound 68],5.80
15,O=C(O)CSc1nnc(-c2cc(-c3ccncc3)cc(-c3ccc4ccccc4c3)c2)[nH]1 [Compound 69],5.73
16,O=C(O)CSc1nnc(-c2cc(-c3ccc(C(F)(F)F)nc3)cc(-c3ccc4ccccc4c3)c2)[nH]1 [Compound 70],5.56
17,O=C(O)CSc1nnc(-c2cc(-c3cnn(-c4cccc(Cl)c4)c3)cc([N+](=O)[O-])c2)[nH]1 [Compound 71],6.88
18,O=C(O)CSc1nnc(-c2cc(-c3cnn(Cc4ccccc4)c3)cc([N+](=O)[O-])c2)[nH]1 [Compound 72],6.85
19,CCn1cc(-c2cc(-c3nnc(SCC(=O)O)[nH]3)cc([N+](=O)[O-])c2)cn1 [Compound 73],6.47
20,O=C(O)CSc1nnc(-c2cc(-c3cn[nH]c3)cc([N+](=O)[O-])c2)[nH]1 [Compound 74],6.42
21,Cn1ccc(-c2cc(-c3nnc(SCC(=O)O)[nH]3)cc([N+](=O)[O-])c2)n1 [Compound 75],6.37
22,COc1ccc2cc(-c3nnc(SCC(=O)O)[nH]3)ccc2c1 [Compound 76],6.19
23,O=C(O)CSc1nnc(-c2cc(OCc3ccccc3)cc([N+](=O)[O-])c2)[nH]1 [Compound 77],6.16
24,O=C(O)CSc1nnc(-c2cc(-c3cc[nH]n3)cc([N+](=O)[O-])c2)[nH]1 [Compound 78],6.13
25,Cc1nn(C)cc1-c1cc(-c2nnc(SCC(=O)O)[nH]2)cc([N+](=O)[O-])c1 [Compound 79],6.12
26,O=C(O)CSc1nnc(-c2cc(C(=O)Nc3ccccc3)cc([N+](=O)[O-])c2)[nH]1 [Compound 82],6.12
27,Cc1c(-c2cc(-c3nnc(SCC(=O)O)[nH]3)cc([N+](=O)[O-])c2)cnn1C [Compound 83],6.10

row,SMILES,pIC50
1,Cc1onc(-c2ccccc2)c1-c1cc(-c2nnc(SCC(=O)O)[nH]2)cc([N+](=O)[O-])c1 [Compound 84],6.06
2,O=C(O)CSc1nnc(-c2ccc3ccccc3c2)[nH]1 [Compound 85],6.05
3,O=C(O)CSc1nnc(-c2ccc(OCc3ccccc3)c([N+](=O)[O-])c2)[nH]1 [Compound 86],6.03
4,Cn1nccc1-c1cc(-c2nnc(SCC(=O)O)[nH]2)cc([N+](=O)[O-])c1 [Compound 88],5.98
5,O=C(O)CSc1nnc(-c2cc(Br)cc([N+](=O)[O-])c2)[nH]1 [Compound 90],5.87
6,Cc1noc(C)c1-c1cc(-c2nnc(SCC(=O)O)[nH]2)cc([N+](=O)[O-])c1 [Compound 91],5.86
7,Cc1nn(C)c(C)c1-c1cc(-c2nnc(SCC(=O)O)[nH]2)cc([N+](=O)[O-])c1 [Compound 93],5.80
8,O=C(O)CSc1nnc(-c2cc(C(=O)NCc3ccccc3)cc([N+](=O)[O-])c2)[nH]1 [Compound 94],5.80
9,O=C(O)CSc1nnc(-c2cc(-c3cnn(CC(=O)O)c3)cc([N+](=O)[O-])c2)[nH]1 [Compound 95],5.69
10,Cn1nc(C(F)(F)F)cc1-c1cc(-c2nnc(SCC(=O)O)[nH]2)cc([N+](=O)[O-])c1 [Compound 97],5.60
11,CC(C)CNC(=O)c1cc(-c2nnc(SCC(=O)O)[nH]2)cc([N+](=O)[O-])c1 [Compound 100],5.56
12,O=C(O)CSc1nnc(-c2ccc3occc3c2)[nH]1 [Compound 102],5.51
13,COc1cc(-c2nnc(SCC(=O)O)[nH]2)cc(C)c1O [Compound 103],5.48
14,CC(C)Oc1ccc(-c2nnc(SCC(=O)O)[nH]2)cc1[N+](=O)[O-] [Compound 104],5.48
15,O=C(O)CSc1nnc(-c2cccc(C(=O)Nc3ccc4c(c3)NC(=O)C4)c2)[nH]1 [Compound 105],5.48
16,O=C(O)CSc1nnc(-c2ccc3ncccc3c2)[nH]1 [Compound 107],5.47
17,COc1cc(-c2nnc(SCC(=O)O)[nH]2)cc2c1OCO2 [Compound 108],5.46
18,O=C(O)CSc1nnc(-c2cc(C(=O)NCc3ccccn3)cc([N+](=O)[O-])c2)[nH]1 [Compound 111],5.36
19,COc1cc(-c2nnc(SCC(=O)O)[nH]2)ccc1F [Compound 114],5.34
20,O=C(O)CSc1nnc(-c2cc(C(=O)NCc3cccnc3)cc([N+](=O)[O-])c2)[nH]1 [Compound 116],5.32
21,O=C(O)CSc1nnc(-c2ccc3nsnc3c2)[nH]1 [Compound 117],5.31
22,O=C(O)CSc1nnc(-c2cc(Br)cc([N+](=O)[O-])c2)n1CC(=O)O [Compound 120],5.30
23,O=C(O)CSc1nnc(-c2ccc3[nH]cnc3c2)[nH]1 [Compound 125],5.19
24,O=C(O)CSc1nnc(-c2cccc(C(=O)Nc3ccc4cn[nH]c4c3)c2)[nH]1 [Compound 130],5.16
25,O=C(O)CSc1nnc(-c2cccc(C(=O)Nc3cccc(Cl)c3)c2)[nH]1 [Compound 135],5.10
26,O=C(O)CSc1nnc(-c2ccc3c(c2)OC(F)(F)O3)[nH]1 [Compound 136],5.10

# Same assay, conditions: 20 nM GRK6, 12 μM ATP (Km), 1 μM Peptide 216, 7 h incubation
row,SMILES,pIC50
1,N#Cc1cccc(-c2cccc(-c3nnc(SCC(=O)O)[nH]3)c2)c1 [Compound 64],6.04
2,O=C(O)CSc1nnc(-c2cccc(-c3cccs3)c2)[nH]1 [Compound 81],6.12
3,O=C(O)CSc1nnc(-c2cc(Br)ccc2O)[nH]1 [Compound 89],5.98
4,O=C(O)CSc1nnc(-c2cccc([N+](=O)[O-])c2)[nH]1 [Compound 92],5.85
5,N#Cc1cccc(-c2nnc(SCC(=O)O)[nH]2)c1 [Compound 96],5.64
6,COc1cc(F)cc(-c2nnc(SCC(=O)O)[nH]2)c1 [Compound 98],5.58
7,Cc1ccc(O)c(-c2nnc(SCC(=O)O)[nH]2)c1 [Compound 99],5.57
8,O=C(O)CSc1nnc(-c2cccc(C(F)(F)F)c2)[nH]1 [Compound 101],5.52
9,O=C(O)CSc1nnc(-c2ccc(F)c(F)c2)[nH]1 [Compound 106],5.47
10,CC(=O)c1cccc(-c2nnc(SCC(=O)O)[nH]2)c1 [Compound 110],5.39
11,O=C(O)CSc1nnc(-c2cccc(-n3cncn3)c2)[nH]1 [Compound 112],5.35
12,COc1ccc(O)c(-c2nnc(SCC(=O)O)[nH]2)c1 [Compound 113],5.34
13,O=C(O)CSc1nnc(-c2cccc(F)c2)[nH]1 [Compound 115],5.33
14,COc1ccc(-c2nnc(SCC(=O)O)[nH]2)cc1C [Compound 118],5.30
15,O=C(O)CSc1nnc(-c2ccc(O)c(O)c2)[nH]1 [Compound 119],5.30
16,COc1cccc(-c2nnc(SCC(=O)O)[nH]2)c1 [Compound 121],5.23

row,SMILES,pIC50
1,COc1cc(OC)cc(-c2nnc(SCC(=O)O)[nH]2)c1 [Compound 122],5.21
2,O=C(O)CSc1nnc(-c2cc(O)ccc2O)[nH]1 [Compound 123],5.21
3,CS(=O)(=O)c1cccc(-c2nnc(SCC(=O)O)[nH]2)c1 [Compound 124],5.20
4,O=C(O)CSc1nnc(-c2cccc(-c3cnccn3)c2)[nH]1 [Compound 126],5.19
5,O=C(O)CSc1nnc(-c2cc(O)cc(O)c2)[nH]1 [Compound 127],5.18
6,O=C(O)CSc1nnc(-c2ccc(O)c([N+](=O)[O-])c2)[nH]1 [Compound 128],5.17
7,Cc1ccc(-c2nnc(SCC(=O)O)[nH]2)c(O)c1 [Compound 129],5.16
8,O=C(O)CSc1nnc(-c2ccc(O)c(F)c2)[nH]1 [Compound 131],5.14
9,O=C(O)CSc1nnc(-c2ccc(-n3ccnc3)cc2)[nH]1 [Compound 132],5.13
10,O=C(O)CSc1nnc(-c2ccc(-c3ccccc3)cc2)[nH]1 [Compound 133],5.13
11,O=C(O)CSc1nnc(-c2ccc(-c3cncnc3)cc2)[nH]1 [Compound 134],5.13
12,COc1cc(-c2nnc(SCC(=O)O)[nH]2)cc(OC)c1OC [Compound 137],5.08
13,O=C(O)CSc1nnc(-c2cccc(F)c2O)[nH]1 [Compound 138],5.06
14,COc1cc(-c2nnc(SCC(=O)O)[nH]2)ccc1OC(=O)C1CC1 [Compound 139],5.05
15,COc1cc(-c2nnc(SCC(=O)O)[nH]2)cc(OC)c1O [Compound 140],5.05
